Measured values published in US20150050299A1, “METHODS FOR ENHANCING IMMUNE RESPONSE” (priority 2010, published 2015).

Legend:
[1] = target: T1, human TLR3 (Homo sapiens, UniProt O15455); assay: Toll-Like Receptor (TLR) screening assay, TLR3; assay type: cell-based; details: 10 μM
T1 sequence (O15455 24-904): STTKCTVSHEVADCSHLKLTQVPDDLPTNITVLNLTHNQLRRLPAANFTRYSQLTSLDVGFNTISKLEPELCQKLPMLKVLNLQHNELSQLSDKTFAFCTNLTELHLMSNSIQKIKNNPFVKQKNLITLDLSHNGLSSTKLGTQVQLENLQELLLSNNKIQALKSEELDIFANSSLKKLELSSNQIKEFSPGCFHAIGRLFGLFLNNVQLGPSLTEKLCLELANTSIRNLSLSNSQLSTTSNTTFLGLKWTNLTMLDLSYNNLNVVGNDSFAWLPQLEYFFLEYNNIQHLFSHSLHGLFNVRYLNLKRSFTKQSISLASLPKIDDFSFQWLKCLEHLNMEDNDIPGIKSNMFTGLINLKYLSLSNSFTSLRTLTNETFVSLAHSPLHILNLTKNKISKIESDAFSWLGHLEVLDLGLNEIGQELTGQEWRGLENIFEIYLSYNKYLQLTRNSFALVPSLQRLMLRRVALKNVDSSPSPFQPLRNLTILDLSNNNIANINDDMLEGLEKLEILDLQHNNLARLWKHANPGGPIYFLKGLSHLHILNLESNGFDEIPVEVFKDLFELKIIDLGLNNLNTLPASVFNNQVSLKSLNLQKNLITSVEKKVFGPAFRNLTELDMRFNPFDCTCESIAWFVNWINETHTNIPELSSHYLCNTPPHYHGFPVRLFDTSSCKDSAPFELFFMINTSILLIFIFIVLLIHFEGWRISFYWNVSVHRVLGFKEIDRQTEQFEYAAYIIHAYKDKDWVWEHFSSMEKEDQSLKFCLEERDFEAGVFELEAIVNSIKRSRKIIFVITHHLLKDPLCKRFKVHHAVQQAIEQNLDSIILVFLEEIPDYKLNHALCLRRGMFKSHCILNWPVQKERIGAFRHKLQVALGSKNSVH

[2] = target: human TLR4 (Homo sapiens, UniProt O00206+Q9Y6Y9); assay: Toll-Like Receptor (TLR) screening assay, TLR4; assay type: cell-based; details: 10 μM; control LPS
[3] = test system: squamous cell carcinomas (SCCs); assay type: in vivo
Method: The combination therapy of polyamine biosynthesis/uptake inhibition was tested against the K6/ODC transgenic mouse murine squamous cell carcinoma (SCC) model recently described.^98 The K6/ODC model was developed to assess whether ODC overexpression was a contributing cause, or an effect of malignant transformation. […] While most skin tumorigenesis models yielded benign squamous papillomas as the predominant tumor type, when the K6/ODC transgene was expressed on the FVB/N strain background, the majority of tumors that developed were aggressive squamous cell carcinomas. These SCCs appeared as early as 5 weeks after treatment and in high multiplicities (up to four tumors per mouse), making this a very efficient model for SCC induction. Using this model, we were thus able to conclude that over-expression of ODC is a sufficient condition for tumor promotion in mouse skin.^99
We conducted an in vivo anti-tumor trial of DFMO combined with either the D-C16-acyl Lys-spm conjugate AMXT 1501 (FIG. 4) or the L-C16-alkyl AMXT 1569 analog (FIG. 5) in the K6/ODC SCC model.
The concentration of AMXT 1501 was 14 μg/ml, or an average daily dose of ˜50-65 μg (equivalent to ˜3 mg/kg/d). […] It is expected that great improvements in the oral bioavailability of AMXT 1501 would result from insightful drug formulation.

[4] = test system: human toll-like receptors (TLR); assay: Toll-like receptor test, overall statement; assay type: cell-based; details: 10 μM
Excerpt: While the role of HMGB1 in cancer biology is complex, the influence of spermine on this danger signaling biomolecule is well established. […] It could be that the tumor's propensity to secrete higher concentrations of spermine allow them to hide from the immune system by negating HMGB1 ability to stimulate an immune response. Therefore, the balance between pro-immune effects of HMGB1 and the counter-immune effects of spermine mediated through this pathway may be shifted by using PBT.

[5] = target: T2, human TLR8 (Homo sapiens, UniProt Q9NR97); assay: Toll-Like Receptor (TLR) screening assay, TLR8; assay type: cell-based; details: 10 μM
T2 sequence (Q9NR97 27-1041): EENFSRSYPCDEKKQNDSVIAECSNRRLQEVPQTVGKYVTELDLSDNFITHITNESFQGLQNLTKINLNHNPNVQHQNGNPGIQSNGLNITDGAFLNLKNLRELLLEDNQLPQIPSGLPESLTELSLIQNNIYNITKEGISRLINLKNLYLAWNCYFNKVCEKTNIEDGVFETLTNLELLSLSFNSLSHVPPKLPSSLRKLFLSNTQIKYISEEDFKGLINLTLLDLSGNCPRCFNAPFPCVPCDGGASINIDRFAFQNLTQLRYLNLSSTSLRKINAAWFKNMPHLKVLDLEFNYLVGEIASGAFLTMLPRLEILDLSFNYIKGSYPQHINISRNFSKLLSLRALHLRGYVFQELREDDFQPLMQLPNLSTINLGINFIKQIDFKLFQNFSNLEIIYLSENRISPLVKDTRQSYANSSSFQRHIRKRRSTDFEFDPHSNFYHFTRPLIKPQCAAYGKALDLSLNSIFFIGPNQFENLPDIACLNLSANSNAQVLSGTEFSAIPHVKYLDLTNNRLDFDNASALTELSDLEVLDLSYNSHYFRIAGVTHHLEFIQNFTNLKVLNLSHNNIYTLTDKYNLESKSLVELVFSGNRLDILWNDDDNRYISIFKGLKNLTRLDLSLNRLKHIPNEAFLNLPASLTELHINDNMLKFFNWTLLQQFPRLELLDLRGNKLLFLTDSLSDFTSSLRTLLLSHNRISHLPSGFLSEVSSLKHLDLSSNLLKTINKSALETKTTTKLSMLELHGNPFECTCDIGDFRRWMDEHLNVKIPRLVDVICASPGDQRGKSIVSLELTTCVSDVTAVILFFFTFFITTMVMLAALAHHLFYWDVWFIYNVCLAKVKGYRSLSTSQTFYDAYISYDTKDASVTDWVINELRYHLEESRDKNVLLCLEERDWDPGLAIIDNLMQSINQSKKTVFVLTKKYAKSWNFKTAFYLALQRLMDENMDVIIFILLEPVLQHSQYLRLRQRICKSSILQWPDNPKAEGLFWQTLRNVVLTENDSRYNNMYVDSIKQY

[6] = target: human TLR5 (Homo sapiens, UniProt O60602); assay: Toll-Like Receptor (TLR) screening assay, TLR5; assay type: cell-based; details: 10 μM
Sequence of human TLR5 (O60602 21-858): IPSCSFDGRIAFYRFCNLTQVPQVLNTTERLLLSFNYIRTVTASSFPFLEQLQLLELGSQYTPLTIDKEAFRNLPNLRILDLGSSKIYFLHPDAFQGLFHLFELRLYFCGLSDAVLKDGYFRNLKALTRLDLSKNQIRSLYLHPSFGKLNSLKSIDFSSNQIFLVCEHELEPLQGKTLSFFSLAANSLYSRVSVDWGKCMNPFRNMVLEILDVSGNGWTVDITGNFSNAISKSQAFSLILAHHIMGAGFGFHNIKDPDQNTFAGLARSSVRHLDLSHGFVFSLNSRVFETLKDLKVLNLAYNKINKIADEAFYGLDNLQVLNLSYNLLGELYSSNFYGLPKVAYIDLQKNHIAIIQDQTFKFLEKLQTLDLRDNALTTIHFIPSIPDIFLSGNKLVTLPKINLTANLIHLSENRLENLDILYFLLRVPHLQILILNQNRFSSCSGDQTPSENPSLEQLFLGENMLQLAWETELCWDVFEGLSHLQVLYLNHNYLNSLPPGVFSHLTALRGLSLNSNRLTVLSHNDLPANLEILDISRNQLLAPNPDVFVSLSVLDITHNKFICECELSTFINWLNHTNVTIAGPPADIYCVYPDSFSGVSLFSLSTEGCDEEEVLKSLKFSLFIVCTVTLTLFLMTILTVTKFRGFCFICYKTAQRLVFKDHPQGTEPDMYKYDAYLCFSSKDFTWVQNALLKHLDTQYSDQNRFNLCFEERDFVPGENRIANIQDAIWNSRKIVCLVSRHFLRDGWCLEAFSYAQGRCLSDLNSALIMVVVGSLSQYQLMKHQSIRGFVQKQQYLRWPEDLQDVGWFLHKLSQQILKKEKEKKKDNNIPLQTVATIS

Sequence of human TLR4 (O00206 24-839): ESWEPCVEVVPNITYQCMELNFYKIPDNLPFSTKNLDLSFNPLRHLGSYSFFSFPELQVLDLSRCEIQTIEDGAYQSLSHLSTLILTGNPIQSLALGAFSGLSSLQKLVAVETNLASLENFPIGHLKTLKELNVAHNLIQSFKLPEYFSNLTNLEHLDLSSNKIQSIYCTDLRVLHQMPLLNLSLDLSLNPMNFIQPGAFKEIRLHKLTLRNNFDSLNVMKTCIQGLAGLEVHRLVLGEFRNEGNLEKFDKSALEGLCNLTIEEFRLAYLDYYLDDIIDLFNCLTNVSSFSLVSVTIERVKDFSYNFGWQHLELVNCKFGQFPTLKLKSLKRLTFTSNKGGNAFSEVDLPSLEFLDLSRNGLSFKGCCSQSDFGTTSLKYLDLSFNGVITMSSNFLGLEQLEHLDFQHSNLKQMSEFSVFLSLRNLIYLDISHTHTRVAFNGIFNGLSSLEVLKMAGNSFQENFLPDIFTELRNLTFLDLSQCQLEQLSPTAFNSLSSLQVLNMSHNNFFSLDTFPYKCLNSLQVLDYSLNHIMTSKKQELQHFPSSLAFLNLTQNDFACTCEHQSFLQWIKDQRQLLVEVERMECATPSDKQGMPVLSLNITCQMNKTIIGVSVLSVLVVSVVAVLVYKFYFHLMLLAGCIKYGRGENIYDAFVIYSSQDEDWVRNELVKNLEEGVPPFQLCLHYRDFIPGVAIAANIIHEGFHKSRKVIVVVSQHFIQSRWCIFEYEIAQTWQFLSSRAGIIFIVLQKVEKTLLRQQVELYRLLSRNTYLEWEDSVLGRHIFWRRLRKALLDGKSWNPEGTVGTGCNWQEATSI
Sequence of human TLR4 (Q9Y6Y9 17-160 limits assumed): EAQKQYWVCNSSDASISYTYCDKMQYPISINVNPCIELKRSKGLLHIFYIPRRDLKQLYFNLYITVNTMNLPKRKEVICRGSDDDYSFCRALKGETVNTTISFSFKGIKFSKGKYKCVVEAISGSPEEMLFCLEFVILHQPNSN

CCCCCCCCCCCCCCCC(=O)NCCCC[C@@H](N)C(=O)NCCCNCCCCNCCCN [AMXT 1501, D-Lys(C16acyl)-Spm]
activity on TLR3 [1]: no significant activity
stimulatory effect on TLR4 [2]: 16 % of control
anti-tumor response to single agent ([3]; agent alone): did not reduce tumor growth
potency to inhibit tumor growth in combination with DFMO, AMXT 1501 versus AMXT 1569 ([3]; combined with DFMO): slightly better results
stimulatory effect on human toll-like receptors [4]: no significant stimulatory effect
activity on TLR8 [5]: no significant activity
activity on TLR5 [6]: no significant activity
